# Laboratory results taken from patent US20260014225A1, “USE OF HULLESS BARLEY GRASS EXTRACT IN CONTROLLING COLORECTAL CANCER AND ULCERATIVE COLITIS” (Shanghai Jiao Tong University, priority 2024, published 2026).
# Assays:
# Format in all cases: in vivo, C57BL/6N male mice
# [1] = tested on: acute ulcerative colitis model in mice; test: DSS-induced acute ulcerative colitis mouse model (body weight, DAI, colon length, survival); conditions: 3% DSS colitis mice, gavage; model group 2.93, blank 0 (FIG. 3C)
# TNF-α, IL-6, IL-1β mRNA = test: qPCR of inflammatory factors in tumor tissue of colorectal cancer mice
# Method: (§1) The whole colon of a mouse was divided into two major parts, namely the tumor segment and the white-side segment. 20 mg of tumor tissue and white-side tissue were taken from the same mouse for total RNA extraction and reverse transcription reaction. The specific operation was the same as above.
# (§2) The experimental data were plotted using GraphPad Prism9.0, and statistical analysis was conducted using one-way ANOVA, where “ns” indicated no significant difference, “*” indicated p<0.05, “**” indicated p<0.01, “***” indicated p<0.001, and “****” indicated p<0.0001. The relative expression of mRNA in qPCR was calculated using the […] method.
# [2] = tested on: colitis-associated colorectal cancer model in mice; test: AOM/DSS-induced colitis-associated colorectal cancer mouse model (body weight, colon, tumors, serum IL-6)
# Method: In this experiment, a mouse colitis-associated colorectal cancer model was established using AOM/DSS, and a specific process is shown in FIG. 2. C57BL/6N male mice were placed in an SPF barrier environment for adaptive feeding for one week, while mice with abnormal weight were eliminated. The remaining mice were randomly divided into […], namely: blank group, 3% DSS+normal saline group (a model group), 3% DSS+300 mg/kg mesalazine (a positive drug group), 3% DSS+600 mg/kg hulless barley grass-derived polyphenol crude extract (Example 1), 3% DSS+400 mg/kg hulless barley grass-derived polysaccharide crude extract (Comparative Example 1), 3% DSS+200 mg/kg hulless barley grass-derived lipid crude extract (Comparative Example 2), and 3% DSS+600 mg/kg hulless barley seed-derived polyphenol crude extract (Comparative Example 3). There were ten mice in each group. In the second week, the mice in the model group, positive group, grass polyphenol group, polysaccharide group, lipid group, and seed polyphenol group were intraperitoneally injected with 10 mg/kg AOM. From the third week, the mice drank 3% DSS aqueous solution for one week, and then the DSS aqueous solution was replaced with sterile water for the mice to drink. The experiment ended after six weeks. During the entire experiment, each group of mice was gavaged with medication according to the grouping. The conditions of mice were observed and their weights were recorded each time they were gavaged. At the end of the experiment, all mice were anesthetized, and the colon (from the anus to the cecum), liver, kidney, and spleen tissues of the mice were collected and weighed after dissection. The intestinal contents were gently rinsed with PBS and the length of the mouse colon tissue was measured. The colon was longitudinally cut open with ophthalmic scissors, and the number and size of tumors in the mouse colon were measured with a vernier caliper and recorded. A part of the whole colon of the mouse was taken for the subsequent preparation of colon Swiss rolls, fixated in 4% paraformaldehyde fixative for histopathological analysis, and the remaining tissues were quick-frozen in liquid nitrogen and then transferred to a −80° C. refrigerator for further measurement of qPCR and other experiments.
# [3] = tested on: colon tissue of colorectal cancer mice; test: Colon Swiss roll H&E histopathology of colorectal cancer mice; conditions: AOM/DSS colorectal cancer mice, compared with the model group (FIG. 13)
# Method: The colon was taken out from the fixative in a fume hood, one end of the colon was gently clamped with ophthalmic forceps, and the entire colon was gently rolled around the forceps in one direction. Be careful not to do it too tight or too loose, otherwise the intestinal villi might fall over or become loose. The Swiss roll was prepared by piercing the edge of the rolled intestine with a fine needle to complete the fixation, and the ophthalmic forceps were removed in the center of the colon. The Swiss roll was placed in an embedding frame and labeled, followed by dehydration and wax immersion, paraffin embedding, paraffin sectioning, dewaxing to water, hematoxylin staining, eosin staining, dehydration and sealing, microscopic examination, and graphic analysis.
# COX-2, EGFR, INOS genes = test: qPCR of COX-2, EGFR and INOS genes in tumor tissue of colorectal cancer mice
# Method: as §1, §2
# intestinal flora = test: 16S rRNA sequencing of intestinal flora in colorectal cancer mice; conditions: colorectal cancer mice (FIG. 16D)
# Method: The mouse feces was collected using a 1.5 mL EP tube, immediately frozen in liquid nitrogen, and stored at −80° C. before sample delivery. 6 samples of mouse colon contents were collected from each group and placed in dry ice for 16S rRNA sequencing by Qingdao Biomarker Technologies Co., LTD.
# [4] = AOM/DSS colorectal cancer mice, compared with the model group (FIG. 12C)
compound,measurement,setting,value
Nc1ccc(O)c(C(=O)O)c1 [mesalazine],disease activity index (DAI),[1],2.33
same,relative expression level of TNF-α mRNA,"TNF-α, IL-6, IL-1β mRNA; compared with the model group (FIG. 14A)",significantly reduced
same,relative expression level of IL-6 mRNA,"TNF-α, IL-6, IL-1β mRNA; compared with the model group (FIG. 14B)",significantly reduced
same,relative expression level of IL-1β mRNA,"TNF-α, IL-6, IL-1β mRNA; compared with the model group (FIG. 14C)",significantly reduced
same,colon weight per unit length (increase in tumor weight caused by modeling),[2]; AOM/DSS colorectal cancer mice (FIG. 11C),effectively reduced the increase in tumor weight caused by modeling
same,proportion of tumors above 3 mm,[2]; [4],decreased
same,proportion of tumors less than 2 mm,[2]; [4],increased significantly
same,proportion of tumors of 2 mm to 3 mm,[2]; [4],decreased
same,body weight when the experiment was over,"[2]; AOM/DSS colorectal cancer mice, last day (FIG. 10B)",significant decrease
same,colon thickness and tumors in pathological sections (H&E),[3],showed a similar trend
same,expression level of COX-2 gene,"COX-2, EGFR, INOS genes; compared with the model group (FIG. 15A)",significantly downregulated
same,expression level of EGFR gene,"COX-2, EGFR, INOS genes; compared with the model group (FIG. 15B)",significantly downregulated
same,expression level of INOS gene,"COX-2, EGFR, INOS genes; compared with the model group (FIG. 15C)",significantly downregulated
same,richness and uniformity of the intestinal flora (rank abundance curve),intestinal flora,closest to those of the blank group
